Test results as given in patent publication US11860161B2, “Detection and treatment of autoimmune disorders” (Seattle Children's Hospital, priority 2007, dated 2024).
Entries after “also recorded” stand apart in the source; their conditions may differ. Where a SMILES comes first, the peptide text is derived from it. The star is where a group is joined. Cbz = O=C(OCc1ccccc1)*; CH2F = FC*

Tests used:
Mo = settings: in vitro, prior study; cited from earlier work
leukocytes = settings: cited from earlier work
T lymphocytes = assay: Foxp3 expression in T lymphocytes of PBMC cultures treated with OPH; assay type: cell-based, human; settings: 50 uM; healthy control and SLE cultures; three days later
Method: PBMC were cultured as above and a duplicate well of each sample treated with 50 uM OPH. PD-L1 upregulation on APC was confirmed in these cultures, and an aliquot of each sample was incubated further in order to allow interaction of APC with autologous T cells in culture. Three days later, the cells were fixed and permeabilized, and the T lymphocytes were assayed for intracellular expression of the regulatory T cell protein, Foxp3.

[1] = tested on: APC surface markers CD80/86; assay: Other APC surface markers (CD80/86 etc.) with caspase inhibitors; assay type: cell-based, human; settings: PBMC from healthy controls, SLE flare, SLE remission (FIG. 5B)
Method: (§1) PBMC were thawed, washed, and diluted to 1-2×10^6 cells/ml in culture medium consisting of RPMI 1640 with L-glutamine (CellGro), 10% heat-inactivated NB human serum (Valley Biomedical), 1% penicillin/streptomycin (CellGro), and 0.1% beta-mercaptoethanol. Cells were plated in round-bottom 96-well plates (Coming Costar) and incubated at 37° C. in a humidified cell chamber with 5% CO2. Some wells were treated with pan-/poly-caspase inhibitors at the time of plating: 50 uM Q- Val-Asp-(non-o-methylated)—OPh (OPH) or Z- Val-Ala-Asp-(beta-o-methyl)-fluroromethylketone (Z-VAD) (both from R&D Systems), or DMSO as the carrier control (0.5% final concentration).
(§2) At the timepoints indicated, cells were surface-stained using fluorochrome- or biotin-conjugated monoclonal antibodies: anti-CD1c, (Miltenyi), anti-CD3, anti-PD-L1 (eBioscience), anti-CD11b, anti-CD11c, anti-CD14, anti-CD-86, anti-PD-L2 (Pharmingen/BD Biosciences), anti-CD45RO, anti-CD80, anti-CD83, and/or anti-HLA-DR (BioLegend), with isotype-matched, fluorochrome/biotin-labeled irrelevant monoclonal antibodies as controls. All samples were blocked using 0.5% human serum and anti-FeR antibody (Miltenyi) during staining. […] Flow cytometry was performed using a FACSCalibur or LSR II cytometer (Becton Dickinson), and data were analyzed using FlowJo software (Macintosh Version 6.3).

PD-L1 on APC = assay: PD-L1 surface expression on APC (Mo, mDC) of PBMC cultured with caspase inhibitors; assay type: cell-based, human
Method: (§3) In order to determine which caspase (or caspases) is responsible for downmodulation of PD-L1 during active lupus, the effects of specific caspase inhibitors on PD-L1 expression in human APC were tested (Table IV). Control and SLE PBMC were incubated for one day in the presence of the individual caspase inhibitors at doses ranging from 10 uM to 50 uM (R&D Systems), with the appropriate level of DMSO as the carrier control (0.5% final concentration). Treated cells were assayed for cell death and apoptosis using Annexin V and PI (example shown in FIG. 4), as well as stained for cell-surface expression of PD-L1 on APC.
as §1
At the timepoints indicated, cells were surface-stained using fluorochrome- or biotin-conjugated monoclonal antibodies: anti-CD1c, (Miltenyi), anti-CD3, anti-PD-L1 (eBioscience), anti-CD11b, anti-CD11c, anti-CD14, anti-CD-86, anti-PD-L2 (Pharmingen/BD Biosciences), anti-CD45RO, anti-CD80, anti-CD83, and/or anti-HLA-DR (BioLegend), with isotype-matched, fluorochrome/biotin-labeled irrelevant monoclonal antibodies as controls. All samples were blocked using 0.5% human serum and anti-FeR antibody (Miltenyi) during staining. Cells were fixed using 2% paraformaldehyde in PBS after preliminary experiments indicated no effect of cell fixation on expression levels of PD-L1 and other surface markers. To assess apoptosis, some cultures were stained in parallel with Annexin V and propidium iodide (PI) (both from Becton Dickinson) as per the manufacturer's instructions. Flow cytometry was performed using a FACSCalibur or LSR II cytometer (Becton Dickinson), and data were analyzed using FlowJo software (Macintosh Version 6.3).

PD-L2 = PD-L2 expression on APC with caspase inhibitors; assay type: cell-based, human; settings: two healthy controls, through four days of culture (FIG. 5D)
Method: as §1, §2

PBMC = PBMC cell death and apoptosis (Annexin V and PI) with caspase inhibitors; assay type: cell-based, human; settings: 50 uM; control, SLE flare and SLE remission cultures; one day (FIG. 4B)
Method: as §3
The inhibitors enter living cells and bind irreversibly at the caspase active sites, preventing further proteolytic activity by the enzyme. After incubation with caspase inhibitors, PBMC were gated by forward and side scatter and analyzed for percent cell death and apoptosis using Annexin V and PI (see FIG. 10). […] However, higher doses of some caspase-specific inhibitors (50 uM), did alter PD-L1 levels, both in Mo and mDC (example shown in FIG. 11). Normal PBMC were incubated in medium with or without various caspase inhibitors, and PD-L1 protein levels assessed at day one. […]

human macrophages = settings: cited from earlier work

Which “effect on markers of Mo differentiation and maturation” value (Mo) does the source give for `COc1c(C)c2c(c(O)c1C/C=C(\C)CCC(=O)OCCN1CCOCC1)C(=O)OC2` [mycophenolate mofetil] here?
Its value is “no significant effect”.

Which “caspase activation and apoptosis in leukocytes” value (leukocytes) does the source give for `CN(C)CCCN1c2ccccc2Sc2ccc(Cl)cc21` [chlorpromazine] here?
Its value is “activate caspases and trigger apoptosis”.

For `CC(C)[C@H](NC(=O)c1ccc2ccccc2n1)C(=O)N[C@@H](CC(=O)O)C(=O)COc1c(F)cccc1F` [OPH, Q- Val-Asp-(non-o-methylated)—OPh], which “level of Foxp3 expression (Foxp3 MFI and number of CD4+ cells expressing Foxp3)” value (T lymphocytes) is on record?
The value was “remained unchanged”.

And the “other APC surface markers” value [1]?
The value was “does not increase”.

What about the “PD-L1 expression on the surface of both Mo and mDC” value (PD-L1 on APC; 50 uM, day one) of the same molecule?
Its value is “increased”.

And the “PD-L1 expression in Mo compared to untreated” value (PD-L1 on APC; 50 uM, controls, SLE flare, SLE remission (FIG. 4C))?
The value was “significantly increases”.

What about the “PD-L1 on APC from healthy controls” value (PD-L1 on APC; CD80/86+ APC, one day (FIG. 7)) of the same molecule?
Its value is “upregulated PD-L 1 further; also recorded: increased”.

What about the “PD-L1 on PBMC” value (PD-L1 on APC; FIG. 5A) of the same molecule?
Its value is “increases”.

And the “number of CD14int among PD-L1+ PBMC” value (PD-L1 on APC; FIG. 5A)?
Its value is “increases”.

What about the “mean percentage of Mo expressing PD-L1” value (PD-L1 on APC; SLE flare, 50 uM, untreated 45%) of the same molecule?
Its value is 97%.

What about the “mean percentage of mDC expressing PD-L1” value (PD-L1 on APC; all three groups, 50 uM, P<0.013) of the same molecule?
The value was “more than doubled”.

What about the “increase of PD-L1 expression in immature mDC” value (PD-L1 on APC; all three groups, 50 uM, p<0.02) of the same molecule?
The value was “two- to three-fold”.

And the “PD-L1 levels in SLE flare APC” value (PD-L1 on APC; one day (FIG. 7))?
The value was “approached those of untreated control cells; also recorded: restored normal levels”.

And the PD-L2 expression (PD-L2)?
The PD-L2 expression was “not increased”.

What about the “apoptosis in PBMC” value (PBMC) of the same molecule?
The value was “reduces”.

Which “caspase activation and apoptosis in human macrophages” value (human macrophages) does the source give for “Infliximab: can cause a lupus-like syndrome in susceptible individuals” here?
The value was “promote caspase activation and apoptosis”.

For `COC(=O)CC[C@H](NC(=O)[C@H](CC(=O)OC)NC(=O)OCc1ccccc1)C(=O)N[C@H](C(=O)N[C@@H](CC(=O)OC)C(=O)CF)C(C)C` [Z-DEVD-fmk], which PD-L1 levels (PD-L1 on APC; normal PBMC, control mDC, day one (FIG. 11)) is on record?
Its PD-L1 levels is “greatly increased”.

Which “effect on markers of Mo differentiation and maturation” value (Mo) does the source give for `Sc1ncnc2nc[nH]c12` [6-mercaptopurine] here?
The value was “no significant effect”.

Which results are given for `COC(=O)C[C@H](NC(=O)[C@H](C)NC(=O)[C@@H](NC(=O)OCc1ccccc1)C(C)C)C(=O)CF` [Z-VAD, Z- Val-Ala-Asp-(beta-o-methyl)-fluroromethylketone] (Cbz-Val-Ala-Asp(OMe)-CH2F)?
reciprocal relationship between caspase activity and Mo PD-L1 expression (PD-L1 on APC; all PBMC treated): held true; PD-L2 expression (PD-L2): not increased

For `CCN(CC)CCCC(C)Nc1ccnc2cc(Cl)ccc12` (stereo not drawn) [chloroquine], which “effect on markers of Mo differentiation and maturation” value (Mo) is on record?
Its value is “no significant effect”.
